Test results published in patent publication US9358300B2, “Transfection reagents” (LIFE TECHNOLOGIES CORPORATION, priority 1998, dated 2016).

System: Primary, passaged, normal human fibroblasts (NHFs)
Test: Transfection of normal human fibroblasts with pCMV SPORT-β-gal DNA, β-gal activity
Type: cell-based
Settings: 40 ng pCMV SPORT-β-gal DNA and 0.1 or 0.2 μl lipid per well, ND = no detectable activity
Method: The cationic lipid reagents and DNA were diluted separately into 25µl aliquots of serum-free DMEM, containing 1% NEAA. For LIPOFECTAMINE® PLUS, 7 14 μl of PLUS reagent was added to the DNA, mixed, and incubated for 15 minutes at room temperature. The diluted DNA was combined with the diluted lipid and incubated at room temperature for at least 15 minutes to allow the DNA and the lipid to form complexes. Following this incubation the complexes were added directly into the culture medium dropwise and mixed by rocking the culture plate back and forth. The cells were further incubated at 37° C. for a total of 24 hours to allow expression of the lacZ transgene encoded by the reporter plasmid, pCMV SPORT-β-gal. At 24 hours post-transfection, the growth medium and transfection complexes were removed from the wells, and the cells in each well were rinsed briefly with 1 ml of D-PBS (Dulbecco's PBS, Life Technologies, Rockville, Md.). The cells in each well were lysed by the addition of 0.15 to 2.0 ml of […]. The plates were frozen at −80° C. for a minimum of 2 hours, and thawed at room temperature or 37° C. The thawed cell lysates were cleared by centrifugation and the supernatants were assayed for β-gal activity using the enzymatic substrate ONPG. The concentration of total protein in cell lysates was also determined using a Bradford assay (Bio-Rad Laboratories, Hercules Calif.). β-gal activity in transfected cell extracts was calculated against a standard curve and expressed as ng β-gal per surface area of tissue culture plate (ng/cm2) to reflect activity per transfection, or as ng β-gal per μg of total protein (ng/μg) to reflect specific activity.
Primary, passaged, normal human fibroblasts (NHFs) were plated in 96-well plates at a density of 1.6×104 cells per well and transfected the following day. Cells in each well were transfected with 40 ng pCMV SPORT-β-gal DNA and 0.1 or 0.2 μl lipid.
The DNA and lipid were diluted separately into 10 μl of DMEM. The DNA was either used alone or pre-mixed with PLUS, insulin, transferrin, or an integrin-targeting peptide prior to complexing with the lipid. After 15 minutes of complexing, the DNA-lipid was added to cells. Cells were assayed for p-gal activity as described above.

Substance: N^1,N^4-dioleyl-N^1,N^4-di-[2-hydroxy-3-(N-spermine carboxamido)-aminopropyl]-diaminobutane [Compound of Formula VII]
- ACTIVITY (β-gal), DNA and PLUS (DNA pre-mixed with PLUS Reagent): 637.9 ng/βgal/cm^2
- ACTIVITY (β-gal), DNA and INSULIN (DNA pre-mixed with insulin): 195.7 ng/βgal/cm^2
- ACTIVITY (β-gal), DNA and INTEGRIN-TARGETING PRPTIDE (DNA pre-mixed with integrin-targeting peptide): 587.9 ng/βgal/cm^2
- ACTIVITY (β-gal), DNA and TRANSFERRIN (DNA pre-mixed with transferrin): 21.7 ng/βgal/cm^2
- ACTIVITY (β-gal), DNA (DNA used alone): 29.4 ng/βgal/cm^2
